In patent US20260049078A1, “DIFLUORO- AND TRIFLUORO-ACETYL HYDRAZIDES AS SELECTIVE HDAC6 INHIBITORS” (ITALFARMACO S.P.A., priority 2022, published 2026):

Tests used:
[1] = tested on: human B cell precursor leukemia 697; assay: In vitro α-tubulin acetylation in 697 cell line; assay type: cell-based; conditions: Homo sapiens, B-cell, 16 h; read-out: TubAc 697 cells EC50
Experimental: The in vitro α-tubulin acetylation was evaluated on human B cell precursor leukemia 697.
The 697 cells were maintained in RPMI Medium 1640 (Gibco, cat: 21875-034) supplemented with 10 mM HEPES (Gibco, cat: 15630-080), Pen-Strep (Penicillin 100 U/ml, Streptomycin 100 μg/ml, Gibco, cat: 15140-122) and 10% fetal bovine serum (Gibco, cat: 10270-106).
The cells were plated in 12-well plates (Costar, cat: 3512) at the density of 5.5×10^5 cells/ml.
Serial dilutions of test compounds in DMSO were prepared using 20 mM stock solutions to obtain 8 doses 200× concentrated in respect to final doses (2.7-100000 nM). Then the DMSO solutions were diluted 10× in culture medium to obtain 20× concentrated solutions which were used for cells treatment (125 μl of medium solutions were added to 2.375 ml of cells suspension). The final DMSO content was set as 0.5%. The plates were incubated at 37° C., 5% CO2 for 16 hours.
At the end of the incubation period, the cells were harvested and centrifuged for 5 minutes at 200×g and washed with 0.9% NaCl at 4° C. The resulting pellet was treated for 30 minutes at 4° C. with 100 μl Complete Lysis-M buffer containing protease inhibitors (Complete Lysis-M Roche+Complete Tablets, Mini Easypack, cat: 4719956001) and phosphatase inhibitor cocktails (PhosStop Easypack, Roche, cat: 4906837001) and then centrifuged 10 minutes at 18213×g. The protein concentration in each supernatant was determined using BCA Protein Assay Kit (Pierce, cat: 23227). The samples were diluted in PBS 1× to obtain 2 μg/ml concentration and coated in MaxiSorp 96-well plates (Nunc, cat: 442404). The plates were incubated overnight at room temperature.
Plates were washed twice with Wash Buffer (PBS 1×+0.005% tween 20) and saturated for 1 hour at room temperature with 300 μL of 1×PBS containing 10% FBS. After washing twice with Wash Buffer, the plates were incubated for 2 hours at room temperature in the presence of 100 μl/well either anti-acetylated-α-tubulin antibody (Monoclonal Anti-Tubulin, Acetylated antibody produced in mouse, Sigma-Aldrich, cat: T6793) or total anti-α-tubulin antibody (Monoclonal Anti-α-Tubulin produced in mouse, Sigma-Aldrich, cat: T6074) diluted 1:1000 in 1×PBS containing 10% FBS. Following 5 washing cycles with Wash Buffer the secondary antibody conjugated with the enzyme HRP (Goat anti-Mouse IgG, IgM, IgA (H+L), stock concentration 0.5 mg/ml, Thermo Fisher Scientific, cat: A10668), diluted 1:1000 in 1×PBS+10% FBS was added at the volume of 100 μl/well. After two hours of incubation at room temperature the plates were washed 4 times with Wash Buffer, then 100 μl/well of TMB substrate (TMB substrate kit, Thermo Fisher Scientific, cat: 34021) was added for 10 minutes at room temperature in the dark. The reaction was stopped by adding 50 μl of 2M H2SO4. The plates were read in BioTek Synergy H1 multimode microplate reader at a wavelength of 450 nm.
The measured absorbance was corrected by subtracting the mean of blank values (samples without the primary antibody). The absorbance ratios of acetyl to total tubulin assays were calculated and normalized to the reference compound (positive control) 4 parameter logistic curve, where 0% is the fitted bottom and 100% is the fitted top of the curve. The results are expressed as relative EC50.

[2] = target: recombinant human HDAC1 (Homo sapiens (Human), UniProt Q13547); assay: Enzyme inhibitory activity assay on HDAC1; assay type: biochemical; conditions: 120 minutes preincubation at 25° C.
recombinant human HDAC1, sequence (Q13547 whole entry): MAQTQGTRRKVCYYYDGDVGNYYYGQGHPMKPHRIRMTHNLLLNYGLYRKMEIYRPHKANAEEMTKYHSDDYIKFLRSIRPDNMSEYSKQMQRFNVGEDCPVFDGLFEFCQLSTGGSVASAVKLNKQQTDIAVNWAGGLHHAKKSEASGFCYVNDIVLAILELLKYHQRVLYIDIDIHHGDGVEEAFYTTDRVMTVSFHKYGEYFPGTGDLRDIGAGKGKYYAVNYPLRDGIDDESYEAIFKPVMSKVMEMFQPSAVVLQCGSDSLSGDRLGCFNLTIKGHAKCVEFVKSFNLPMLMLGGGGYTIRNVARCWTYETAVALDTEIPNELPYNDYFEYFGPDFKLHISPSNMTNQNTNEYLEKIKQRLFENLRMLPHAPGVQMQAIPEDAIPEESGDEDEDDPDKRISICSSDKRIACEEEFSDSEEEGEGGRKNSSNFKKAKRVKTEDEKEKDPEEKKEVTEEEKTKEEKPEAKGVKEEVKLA
Experimental: (§1) For each test compound, 100× concentrated DMSO solutions at 8 doses were prepared and then diluted in assay buffer (25 mM Tris-HCl, pH 8, 130 mM NaCl, 0.05% Tween-20, 10% Glycerol) to obtain 5× concentrated solutions in relation to the final concentrations (typical final concentration range—6.4-200000 nM or 0.18-50000 nM, final DMSO content—1%). Then 10 μL solution of each test compound concentration were placed on a 96-well plate in triplicate and 15 μL of 3.33× concentrated enzyme solution in the assay buffer containing 3.33× concentrated BSA (final BSA concentration 1 mg/mL) and, in case of HDAC6, 3.33× concentrated TCEP (final TCEP concentration—200 μM) were added to each well. After a period of preincubation at 25° C. (30 minutes for HDAC6 and 120 minutes for HDAC1), 25 μL of solution containing the substrate were added. As substrate, FLUOR DE LYS® deacetylase substrate (Enzo Life Sciences, cat: BML-KI104, FdL), FLUOR DE LYS®-Green substrate (Enzo Life Sciences, cat: BML-KI572, FdL_G) or Boc-Lys(Tfa)-AMC (Bachem, cat: 4060676.005, Tfal)—2× concentrated solution in assay buffer were used. Following a reaction period (30 minutes at 25° C.), 50 μL of the development solution consisting of concentrate FLUOR DE LYS® developer I (Enzo Life Sciences, ca: BML-KI105), diluted 200 times in buffer (50 mM Tris-HCl, pH 8, 137 mM NaCl, 2.7 mM KCl, 1 mM MgCl2) plus 2 μM TSA was added and, after 25 minutes at room temperature in the dark, using the Victor 1420 Multilabel Counter Perkin Elmer Wallac instrument, the fluorescence reading was carried out (excitation/emission: 485/535 nM—Fluor de Lys Green, 355/460 nM—Tfal, Fluor de Lys).
(§2) Enzymatic activity on recombinant human HDAC6 and HDAC1 was evaluated (Table 2) for each synthesized compound.

[3] = target: recombinant human HDAC6 (Homo sapiens (Human), UniProt Q9UBN7); assay: Enzyme inhibitory activity assay on HDAC6; assay type: biochemical; conditions: 30 minutes preincubation at 25° C.
recombinant human HDAC6, sequence (Q9UBN7 whole entry): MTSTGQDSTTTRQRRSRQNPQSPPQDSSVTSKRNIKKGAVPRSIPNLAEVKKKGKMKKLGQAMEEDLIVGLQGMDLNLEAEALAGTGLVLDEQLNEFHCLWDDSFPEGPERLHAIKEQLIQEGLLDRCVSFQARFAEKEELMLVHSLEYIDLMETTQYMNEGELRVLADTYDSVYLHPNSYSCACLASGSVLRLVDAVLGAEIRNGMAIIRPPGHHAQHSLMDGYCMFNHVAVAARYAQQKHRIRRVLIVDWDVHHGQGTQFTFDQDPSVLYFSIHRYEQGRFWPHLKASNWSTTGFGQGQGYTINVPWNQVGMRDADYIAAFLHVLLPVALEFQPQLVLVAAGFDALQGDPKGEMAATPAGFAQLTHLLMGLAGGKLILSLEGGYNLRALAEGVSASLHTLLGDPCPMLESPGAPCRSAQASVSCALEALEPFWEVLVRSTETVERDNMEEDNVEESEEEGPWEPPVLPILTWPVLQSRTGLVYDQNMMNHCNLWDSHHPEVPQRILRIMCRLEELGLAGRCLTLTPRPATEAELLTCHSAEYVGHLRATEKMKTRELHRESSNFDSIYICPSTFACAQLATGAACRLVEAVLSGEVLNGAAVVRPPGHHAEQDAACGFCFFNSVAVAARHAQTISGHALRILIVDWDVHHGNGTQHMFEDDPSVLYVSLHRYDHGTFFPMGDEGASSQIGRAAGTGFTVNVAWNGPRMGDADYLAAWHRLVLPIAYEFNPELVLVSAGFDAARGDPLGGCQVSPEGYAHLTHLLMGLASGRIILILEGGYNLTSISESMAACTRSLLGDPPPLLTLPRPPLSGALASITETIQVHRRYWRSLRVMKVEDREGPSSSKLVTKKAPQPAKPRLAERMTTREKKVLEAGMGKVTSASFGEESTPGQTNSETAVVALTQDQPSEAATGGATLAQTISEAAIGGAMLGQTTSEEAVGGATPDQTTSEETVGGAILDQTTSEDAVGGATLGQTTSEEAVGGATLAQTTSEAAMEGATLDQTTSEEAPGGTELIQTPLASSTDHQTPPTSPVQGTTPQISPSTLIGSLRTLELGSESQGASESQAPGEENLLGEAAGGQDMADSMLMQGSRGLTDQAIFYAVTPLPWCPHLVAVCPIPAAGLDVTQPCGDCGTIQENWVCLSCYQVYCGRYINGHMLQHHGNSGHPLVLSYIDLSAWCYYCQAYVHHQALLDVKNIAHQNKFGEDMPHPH
Experimental: as §1, §2

[4] = tested on: HDAC6; assay: Kinetic of prodrug disappearing when incubated with HDAC6 (LC-HRMS); assay type: biochemical; conditions: HDAC6 1 μM, 5 μM compound, 25° C.; for half-life at 5 µM: HDAC6 enzyme in assay buffer, read-out: T1/2 of prodrug disappearing
Experimental: The LC-HRMS analysis was carried out using a Vanquish Flex UHPLC (Thermo Fisher Scientific) and a high-resolution mass spectrometer Orbitrap QExactive Focus (Thermo Fisher Scientific), equipped with a Heated Electrospray Ionization, operated in positive mode. A Full Scan analysis was set in the m/z range 50-500 amu. A XSelect HSS T3 50×2.1 mm, 2.5 μm chromatographic column (Waters) was used. Mobile phase A consisted of 0.1% formic acid in water and mobile phase B in 0.1% formic acid in acetonitrile. The flow rate was set to 0.5 mL/min, with a gradient program from 3 to 20% B in 3 minutes.

Row | SMILES | EC50 [1] [nM] | IC50 [2] [nM] | IC50 [3] [nM] | half-life at 5 µM [4] [min] | also measured
1 | CC(=O)Nc1cccc(-c2cn(Cc3ccc(-c4nnc(C(F)F)o4)cc3F)nn2)c1 [Compound 12-A] | 346 | > 100000 | 57 |  | 
2 | Fc1cc(-c2nnc(C(F)F)o2)cnc1Cn1cc(-c2ccccn2)nn1 [Compound 15-A] |  | > 100000 | 100 |  | 
3 | CC(c1ccc(-c2nnc(C(F)F)o2)cc1F)n1cc(-c2ccc3nc(N)sc3c2)nn1 (stereo not drawn) [Compound 30-A, 6-(1-(1-(4-(5-(difluoromethyl)-1,3,4-oxadiazol-2-yl)-2-fluorophenyl)ethyl)-1H-1,2,3-triazol-4-yl)benzo[d]thiazol-2-amine] | 1390 |  |  |  | 
4 | Nc1nc2ccc(-c3cn(Cc4ccc(-c5nnc(C(F)F)o5)c(Cl)c4)nn3)cc2s1 [Compound 31-A] |  |  |  | 129 | 
5 | Fc1cc(-c2nnc(C(F)F)o2)ccc1Cn1cc(-c2cccc3[nH]ccc23)nn1 [Compound 36-A] | 167 | > 100000 | 54 |  | 
6 | Fc1cc(-c2nnc(C(F)F)o2)cnc1Cn1cc(-c2cccc3[nH]ccc23)nn1 [Compound 40-A] | 849 | > 100000 | 44 |  | 
7 | Nc1ccc(-c2cn(Cc3c(F)cc(-c4nnc(C(F)(F)F)o4)cc3F)nn2)cn1 [Compound 42-A] |  |  |  | 40.5 | 
8 | Nc1ccc(-c2cn(Cc3ccc(-c4nnc(C(F)(F)F)o4)cc3F)nn2)cn1 [Compound 43-A] |  |  |  | 23.1 | 
9 | Nc1ccc(-c2cn(Cc3ccc(-c4nnc(C(F)(F)F)o4)c(F)c3)nn2)cn1 [Compound 44-A] |  |  |  | 11.3 | 
10 | Nc1ccc(-c2cn(Cc3c(F)cc(-c4nnc(C(F)F)o4)cc3F)nn2)cn1 [Compound 46-A] | 788 | > 100000 |  | 22.9 | percentage of compound concentration (prodrug remaining) ([4]; time 0 min): 100.00%; percentage of compound concentration (prodrug remaining) ([4]; time 30 min): 42.4%; percentage of compound concentration (prodrug remaining) ([4]; time 60 min): 17.4%; percentage of compound concentration (prodrug remaining) ([4]; time 120 min): 2.7%; percentage of compound concentration (prodrug remaining) ([4]; time 240 min): 0.0%; percentage of compound concentration (prodrug remaining) ([4]; time 360 min): 0.0%; percentage of compound concentration (prodrug remaining) ([4]; time 480 min): 0.0%

More lines, main results first:

Row | EC50 [1] [nM] | IC50 [2] [nM] | IC50 [3] [nM] | half-life at 5 µM [4] [min] | SMILES | also measured
11 | 419 | > 100000 | 65 |  | Cc1ccc(-c2cn(Cc3ccc(-c4nnc(C(F)F)o4)cn3)nn2)cc1 [Compound 8-A] | 
12 | 385 | > 100000 | 40 |  | Cc1cccc(-c2cn(Cc3ccc(-c4nnc(C(F)F)o4)cn3)nn2)c1 [Compound 9-A] | 
13 | 1090 | > 100000 | 40 |  | FC(F)c1nnc(-c2ccc(Cn3nnc(-c4ccccc4)n3)nc2)o1 [Compound 16-A] | 
14 | 648 | > 100000 | 41 |  | FC(F)c1nnc(-c2ccc(Cn3nnc(-c4cccs4)n3)nc2)o1 [Compound 17-A] | 
15 | 582 | > 100000 | 56 |  | Fc1cccc(-c2cn(Cc3ccc(-c4nnc(C(F)F)o4)cn3)nn2)c1 [Compound 18-A] | 
16 | 579 | > 100000 | 31 |  | FC(F)c1nnc(-c2ccc(Cn3cc(-c4cccs4)nn3)nc2)o1 [Compound 19-A] | 
17 | 119 | > 100000 | 15 |  | FC(F)c1nnc(-c2ccc(Cn3cc(-c4ccc5[nH]ccc5c4)nn3)nc2)o1 [Compound 27-A] | 
18 | 167 | > 100000 | 20 |  | FC(F)c1nnc(-c2ccc(Cn3cc(-c4cccc5[nH]ncc45)nn3)nc2)o1 [Compound 34-A] | 
19 | 664 | > 100000 | 26 | 113 | Nc1ccc(-c2cn(Cc3ccc(-c4nnc(C(F)F)o4)cc3)nn2)cn1 [Compound 45-A] | percentage of compound concentration (prodrug remaining) ([4]; time 0 min): 100.00%; percentage of compound concentration (prodrug remaining) ([4]; time 30 min): 79.9%; percentage of compound concentration (prodrug remaining) ([4]; time 60 min): 73.7%; percentage of compound concentration (prodrug remaining) ([4]; time 120 min): 47.8%; percentage of compound concentration (prodrug remaining) ([4]; time 240 min): 22.6%; percentage of compound concentration (prodrug remaining) ([4]; time 360 min): 11.6%; percentage of compound concentration (prodrug remaining) ([4]; time 480 min): 5.2%
20 | 871 | > 100000 |  | 29.3 | Nc1ccc(-c2cn(Cc3ccc(-c4nnc(C(F)F)o4)cc3F)nn2)cn1 [Compound 47-A] | percentage of compound concentration (prodrug remaining) ([4]; time 0 min): 100.00%; percentage of compound concentration (prodrug remaining) ([4]; time 30 min): 53.6%; percentage of compound concentration (prodrug remaining) ([4]; time 60 min): 29.7%; percentage of compound concentration (prodrug remaining) ([4]; time 120 min): 7.4%; percentage of compound concentration (prodrug remaining) ([4]; time 240 min): 0.4%; percentage of compound concentration (prodrug remaining) ([4]; time 360 min): 0.0%; percentage of compound concentration (prodrug remaining) ([4]; time 480 min): 0.0%
21 | 29 |  |  |  | Nc1ccc(-c2cn(Cc3ccc(-c4nnc(C(F)F)o4)s3)nn2)cn1 [Compound 49-A] | 
